Measured values from patent US20240335394A1 (Ludwig Institute for Cancer Research Ltd, priority 2021, published 2024).

What was measured:
syngeneic MC38 tumors = experiment: MC38 study: anti-PD1 antibody alone or with methanol or sodium formate, tumor volume and survival; type: in vivo, C57BL/6 mice
Experimental: Tumor volumes were measured by caliper twice weekly.

MC38 cells = experiment: MC38 rechallenge of mice that cleared tumors; type: in vivo; details: 6 mice cleared by methanol plus anti-PD1, reinoculated with 5×10^5 MC38 cells on opposite flank, untreated, observed three weeks
Source text: The rechallenged mice were monitored twice weekly for tumor growth for three weeks. Fifteen age-matched, tumor-naïve control mice were simultaneously inoculated as a control. The mice were not treated during the observation interval.

[1] = humans; cited from earlier work
[2] = in vivo; cited from earlier work
1C-starved T-cells = details: formate supplementation; cited from earlier work
[3] = primates; cited from earlier work
[4] = Body weight in the MC38 study; details: methanol 2 g/kg daily oral gavage or sodium formate 0.5% w/v in drinking water, with anti-PD1
Experimental: Female C57BL/6 mice (10 per group) were inoculated subcutaneously with 5×10^5 MC38 syngeneic mouse tumor cells. […] Tumor volumes were measured by caliper twice weekly.

## CO [methanol]
Syngeneic MC38 tumors; methanol 2 g/kg daily oral gavage plus anti-PD1 antibody 5 mg/kg ip twice weekly, compared to vehicle or sodium formate
  response to anti-PD1 therapy: improved response to anti-PD1 therapy
Syngeneic MC38 tumors; mouse model of cancer
  synergy with immunotherapy in a mouse model of cancer: synergize with immunotherapy
MC38 cells
  tumor development after rechallenge: did not develop tumors
[1]
  lethal dose: 300 to 1000 mg/kg

## O=C[O-].[Na+] [sodium formate]
[2]
  elimination: too rapidly eliminated to dose directly
1C-starved T-cells
  T-cell activity: rescues T-cell activity
[3]
  formate levels at which symptomatic toxicity is observed: greater than 8 mM
[4]
  effects on body weight: No effects on body weight
